The values below come from patent US20060141496A1, “Method of screening substance interacting with ABC protein” (priority 2003, published 2006).

T1 sequence (P08183 whole entry): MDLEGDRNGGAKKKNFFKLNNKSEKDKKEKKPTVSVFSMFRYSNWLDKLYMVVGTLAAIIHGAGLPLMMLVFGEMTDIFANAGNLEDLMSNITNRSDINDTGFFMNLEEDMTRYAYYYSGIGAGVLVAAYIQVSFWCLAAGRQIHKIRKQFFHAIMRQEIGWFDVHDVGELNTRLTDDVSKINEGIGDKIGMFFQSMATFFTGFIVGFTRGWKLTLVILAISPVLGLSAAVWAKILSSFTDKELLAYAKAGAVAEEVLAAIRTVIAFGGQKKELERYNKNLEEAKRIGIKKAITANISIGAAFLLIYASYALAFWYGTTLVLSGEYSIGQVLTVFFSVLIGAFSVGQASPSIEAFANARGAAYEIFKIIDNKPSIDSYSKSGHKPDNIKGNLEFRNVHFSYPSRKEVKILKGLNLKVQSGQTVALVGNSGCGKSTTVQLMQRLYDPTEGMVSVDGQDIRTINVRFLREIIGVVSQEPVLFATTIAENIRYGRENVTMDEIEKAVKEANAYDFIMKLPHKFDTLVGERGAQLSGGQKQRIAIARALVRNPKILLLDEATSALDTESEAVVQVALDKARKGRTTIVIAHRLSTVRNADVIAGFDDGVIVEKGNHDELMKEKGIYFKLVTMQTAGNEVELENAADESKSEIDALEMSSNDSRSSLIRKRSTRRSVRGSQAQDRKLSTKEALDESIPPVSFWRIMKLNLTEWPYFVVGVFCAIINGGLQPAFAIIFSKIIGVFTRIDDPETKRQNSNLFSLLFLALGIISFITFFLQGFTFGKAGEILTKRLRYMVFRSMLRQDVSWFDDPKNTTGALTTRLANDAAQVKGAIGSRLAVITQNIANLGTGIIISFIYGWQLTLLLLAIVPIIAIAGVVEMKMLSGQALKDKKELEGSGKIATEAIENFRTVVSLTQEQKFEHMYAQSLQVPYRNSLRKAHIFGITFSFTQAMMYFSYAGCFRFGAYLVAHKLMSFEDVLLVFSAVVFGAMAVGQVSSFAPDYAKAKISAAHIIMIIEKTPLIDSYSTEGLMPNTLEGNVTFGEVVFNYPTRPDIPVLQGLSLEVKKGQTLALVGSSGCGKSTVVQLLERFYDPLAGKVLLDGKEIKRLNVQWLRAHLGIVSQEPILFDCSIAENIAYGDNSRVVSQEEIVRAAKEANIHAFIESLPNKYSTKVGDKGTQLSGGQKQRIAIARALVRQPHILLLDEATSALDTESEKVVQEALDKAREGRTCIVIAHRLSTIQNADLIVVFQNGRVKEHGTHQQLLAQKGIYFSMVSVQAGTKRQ
T2 sequence (Q92887 whole entry): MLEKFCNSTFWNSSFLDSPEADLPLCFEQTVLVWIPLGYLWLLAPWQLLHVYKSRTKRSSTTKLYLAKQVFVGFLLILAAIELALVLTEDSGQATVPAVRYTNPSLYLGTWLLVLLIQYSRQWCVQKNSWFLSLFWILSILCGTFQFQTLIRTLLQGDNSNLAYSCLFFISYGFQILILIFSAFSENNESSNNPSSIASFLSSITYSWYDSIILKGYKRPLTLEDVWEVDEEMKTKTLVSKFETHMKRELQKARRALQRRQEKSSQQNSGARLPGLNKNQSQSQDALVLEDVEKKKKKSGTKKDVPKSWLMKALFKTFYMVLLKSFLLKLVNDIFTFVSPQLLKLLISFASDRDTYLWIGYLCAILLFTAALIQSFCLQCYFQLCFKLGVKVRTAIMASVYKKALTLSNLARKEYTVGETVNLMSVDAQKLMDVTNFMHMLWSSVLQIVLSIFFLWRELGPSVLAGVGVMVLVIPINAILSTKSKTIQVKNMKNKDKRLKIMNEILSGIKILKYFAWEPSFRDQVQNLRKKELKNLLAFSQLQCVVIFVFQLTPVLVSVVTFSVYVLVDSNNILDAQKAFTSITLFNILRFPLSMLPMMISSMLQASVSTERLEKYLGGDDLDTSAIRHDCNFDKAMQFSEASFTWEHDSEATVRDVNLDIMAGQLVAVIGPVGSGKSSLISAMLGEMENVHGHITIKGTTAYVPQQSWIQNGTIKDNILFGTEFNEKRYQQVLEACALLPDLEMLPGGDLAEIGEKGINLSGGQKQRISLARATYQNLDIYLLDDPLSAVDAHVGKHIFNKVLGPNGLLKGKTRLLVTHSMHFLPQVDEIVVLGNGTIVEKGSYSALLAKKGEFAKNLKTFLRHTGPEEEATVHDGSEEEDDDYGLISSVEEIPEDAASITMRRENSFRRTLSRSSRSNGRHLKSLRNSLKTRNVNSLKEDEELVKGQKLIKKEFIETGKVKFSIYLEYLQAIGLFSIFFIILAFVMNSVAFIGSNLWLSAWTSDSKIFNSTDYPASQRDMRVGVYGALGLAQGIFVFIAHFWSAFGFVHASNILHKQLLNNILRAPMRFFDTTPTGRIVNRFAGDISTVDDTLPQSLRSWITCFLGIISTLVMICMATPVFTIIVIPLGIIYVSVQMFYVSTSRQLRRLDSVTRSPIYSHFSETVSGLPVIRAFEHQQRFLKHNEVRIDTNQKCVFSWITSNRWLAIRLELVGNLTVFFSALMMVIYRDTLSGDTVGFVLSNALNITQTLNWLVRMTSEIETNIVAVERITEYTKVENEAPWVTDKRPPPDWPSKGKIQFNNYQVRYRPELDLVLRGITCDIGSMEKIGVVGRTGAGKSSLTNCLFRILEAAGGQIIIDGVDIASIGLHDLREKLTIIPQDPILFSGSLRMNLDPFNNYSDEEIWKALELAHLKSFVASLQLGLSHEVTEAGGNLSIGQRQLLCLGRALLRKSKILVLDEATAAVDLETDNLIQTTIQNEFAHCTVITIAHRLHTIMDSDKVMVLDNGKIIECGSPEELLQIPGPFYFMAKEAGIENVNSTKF

One data set concerns the target T1, human P-glycoprotein (Pgp or MDR 1) expressing membrane (Homo sapiens, UniProt P08183).
T1 construct: purchased Daiichi Pure Chemicals Co. No. 453228; host or cells: Sf9 insect cell membrane
The experiment in a line: [3H] ADP binding amount by vanadate method, suction cleaning on 96-well glass filter, P-glycoprotein-expressing membrane. It counts as biochemical. Particulars: substrate 0.05 mM; reaction time 5 minutes; 37° C.; background of control membrane subtracted; FIG. 4.
`CC[C@]1(O)C[C@H]2CN(CCc3c([nH]c4ccccc34)[C@@](C(=O)OC)(c3cc4c(cc3OC)N(C=O)[C@H]3[C@@](O)(C(=O)OC)[C@H](OC(C)=O)[C@]5(CC)C=CCN6CC[C@]43[C@@H]65)C2)C1` [Vincristine]: the “[3H] ADP binding activity compared to P-glycoprotein-expressing membrane without substrate” value is given as “significant increase”.

In the case of `O=C1OC(c2ccc(O)c(S(=O)(=O)O)c2)(c2ccc(O)c(S(=O)(=O)O)c2)c2c(Br)c(Br)c(Br)c(Br)c21` [Bromosulfalein], the “[3H] ADP binding activity compared to P-glycoprotein-expressing membrane without substrate” value is listed as “lowered significantly”.

On to `Nc1nc2ncc(CNc3ccc(C(=O)N[C@@H](CCC(=O)O)C(=O)O)cc3)nc2c(=O)[nH]1` [Folate], for which the “[3H] ADP binding activity compared to P-glycoprotein-expressing membrane without substrate” value is listed as “significant increase”.

Turning to `CC[C@]1(O)C[C@@H]2CN(CCc3c([nH]c4ccccc34)[C@@](C(=O)OC)(c3cc4c(cc3OC)N(C)[C@H]3[C@@](O)(C(=O)OC)[C@H](OC(C)=O)[C@]5(CC)C=CCN6CC[C@]43[C@@H]65)C2)C1` [Vinbrastine], the “[3H] ADP binding activity compared to P-glycoprotein-expressing membrane without substrate” value is listed as “significant increase”.

On to `CN(Cc1cnc2nc(N)nc(N)c2n1)c1ccc(C(=O)N[C@@H](CCC(=O)O)C(=O)O)cc1` [Methotrexate], for which the “[3H] ADP binding activity compared to P-glycoprotein-expressing membrane without substrate” value is “significant increase”.

Turning to `COc1cccc2c1C(=O)c1c(O)c3c(c(O)c1C2=O)C[C@@](O)(C(=O)CO)C[C@@H]3O[C@H]1C[C@H](N)[C@H](O)[C@H](C)O1` [Doxorubicin], the “[3H] ADP binding activity compared to P-glycoprotein-expressing membrane without substrate” value is on record as “significant increase”.

As to `COc1cccc2c1C(=O)c1c(O)c3c(c(O)c1C2=O)C[C@@](O)(C(C)=O)C[C@@H]3O[C@H]1C[C@H](N)[C@H](O)[C@H](C)O1` [Daunorubicin], the “[3H] ADP binding activity compared to P-glycoprotein-expressing membrane without substrate” value is “significant increase”.

The next data set addresses T2, human MRP2 (Homo sapiens, UniProt Q92887).
T2 construct: made in house; host or cells: Sf9 insect cells (baculovirus, pFASTBac1)
The data set is described as follows: [3H] ADP binding amount by vanadate method, human MRP2-expressing Sf9 membrane. It counts as biochemical. Particulars: substrate 0.1 mM; reaction time 5 minutes; 37° C.; FIG. 6.
With `O=C1OC(c2ccc(O)c(S(=O)(=O)O)c2)(c2ccc(O)c(S(=O)(=O)O)c2)c2c(Br)c(Br)c(Br)c(Br)c21` [Bromosulfalein], the “[3H] ADP binding activity compared to MRP2-expressing membranes without substrate” value is “increase of significant [^3H] ADP binding activity”.

With “β-estradiol-17-(β-D-glucuronide) [β-estradiol-17 (β-D-glucuronide)]”, the “[3H] ADP binding activity compared to MRP2-expressing membranes without substrate” value is “increase of significant [^3H] ADP binding activity”.
